In patent US10457677B2 (priority 2015, dated 2019):
Where two headings read alike, the source gives them in different places.

Experiments:
[1] = target: purified human recombinant ATM (ataxia telangiectasia mutated), full length (Homo sapiens (Human), UniProt Q13315); assay: ATM kinase assay - determination of ATM inhibition (IC50 ATM), TR-FRET; type: biochemical
Outline: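 Full-length enzyme, expressed in a mammalian cell line, pre-incubated 15 min with inhibitor in 25 mM HEPES pH 8.0, 10 mM Mg(CH3COO)2, 1 mM MnCl2, 0,1% BSA, 0,01% Brij 35, 5 mM DTT. Full-length cmyc-p53 (Sf21-expressed) and ATP then added, 30-35 min at 22° C. EDTA stop; p53 S15 phosphorylation read by TR-FRET antibodies.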

PI3K (p120γ) (human) = PI3K (p120γ) (human) (Homo sapiens (Human), UniProt P48736); assay: PI3K (p120γ) (human), non-radioactive assay (HTRF); type: biochemical; conditions: read-out: IC50 (PI3Kgamma)
Outline: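 Enzyme was run with 10 μM phosphatidylinositol 4,5-bisphosphate, starting the reaction with MgATP at an unspecified level, for 30 min at room temperature. The stop used EDTA plus biotinylated PIP3, and detection used Eu-anti-GST, GST-GRP1 PH domain and streptavidin-APC. Signal was taken as HTRF = 10000×(Em665nm/Em620nm).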

PI3K p110β/p85α (human) = PI3K p110β/p85α (human) (Homo sapiens (Human), UniProt P42338); assay: PI3K p110β/p85α (human), non-radioactive assay (HTRF); type: biochemical
Outline: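 Human p110β/p85α incubated with 10 μM phosphatidylinositol 4,5-bisphosphate and MgATP for 30 min at room temperature, stopped with EDTA plus biotinylated PIP3. HTRF detection used a Eu-anti-GST antibody, GST-GRP1 PH domain and streptavidin-APC, with signal taken as 10000×(Em665nm/Em620nm).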

PI3K p110α/p85α (human) = PI3K p110α/p85α (human) (Homo sapiens (Human), UniProt P42336); assay: PI3K p110α/p85α (human), non-radioactive assay (HTRF); type: biochemical; conditions: read-out: IC50 (PI3Kalpha)
[2] = system: phosphorylation of CHK2 (phospho-Thr68) in HCT116 cells; assay: Cellular pCHK2 assay: bleomycin-induced phosphorylation of CHK2 (phospho-Thr68), immunofluorescence high-content analysis; type: cell-based, human; conditions: Homo sapiens, HCT-116, 4 h, read-out: IC50 (pCHK2)
Outline: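 HCT116 cells in DMEM with 10% FCS, incubated overnight at 37° C, then given compounds (1 nM to 30 μM, 0.5% DMSO) together with 10 μM bleomycin. Phospho-Thr68 CHK2 immunostained and imaged by high-content imager; nuclei with pCHK2 above background counted, cell count from propidium iodide DNA stain.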

PI3K p110δ/p85α (human) = PI3K p110δ/p85α (human) (Homo sapiens (Human), UniProt O00329); assay: PI3K p110δ/p85α (human), non-radioactive assay (HTRF); type: biochemical; conditions: read-out: IC50 (PI3Kdelta)
mTOR (human) = mTOR (human) (Homo sapiens (Human), UniProt P42345); assay: mTOR (human) kinase assay, [γ-33P-ATP] filter assay; type: biochemical
Outline: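 Radiometric filter assay: enzyme in 50 mM HEPES pH 7.5, 1 mM EGTA, 0.01% Tween 20, 3 mM MnCl2, 2 mg/ml substrate with [γ-33P-ATP], started with MgATP. Incubated 40 min at room temperature, stopped with 3% phosphoric acid; incorporation measured on P30 filtermat by scintillation counting.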

Chain of PI3K p110δ/p85α (human) (O00329 whole entry): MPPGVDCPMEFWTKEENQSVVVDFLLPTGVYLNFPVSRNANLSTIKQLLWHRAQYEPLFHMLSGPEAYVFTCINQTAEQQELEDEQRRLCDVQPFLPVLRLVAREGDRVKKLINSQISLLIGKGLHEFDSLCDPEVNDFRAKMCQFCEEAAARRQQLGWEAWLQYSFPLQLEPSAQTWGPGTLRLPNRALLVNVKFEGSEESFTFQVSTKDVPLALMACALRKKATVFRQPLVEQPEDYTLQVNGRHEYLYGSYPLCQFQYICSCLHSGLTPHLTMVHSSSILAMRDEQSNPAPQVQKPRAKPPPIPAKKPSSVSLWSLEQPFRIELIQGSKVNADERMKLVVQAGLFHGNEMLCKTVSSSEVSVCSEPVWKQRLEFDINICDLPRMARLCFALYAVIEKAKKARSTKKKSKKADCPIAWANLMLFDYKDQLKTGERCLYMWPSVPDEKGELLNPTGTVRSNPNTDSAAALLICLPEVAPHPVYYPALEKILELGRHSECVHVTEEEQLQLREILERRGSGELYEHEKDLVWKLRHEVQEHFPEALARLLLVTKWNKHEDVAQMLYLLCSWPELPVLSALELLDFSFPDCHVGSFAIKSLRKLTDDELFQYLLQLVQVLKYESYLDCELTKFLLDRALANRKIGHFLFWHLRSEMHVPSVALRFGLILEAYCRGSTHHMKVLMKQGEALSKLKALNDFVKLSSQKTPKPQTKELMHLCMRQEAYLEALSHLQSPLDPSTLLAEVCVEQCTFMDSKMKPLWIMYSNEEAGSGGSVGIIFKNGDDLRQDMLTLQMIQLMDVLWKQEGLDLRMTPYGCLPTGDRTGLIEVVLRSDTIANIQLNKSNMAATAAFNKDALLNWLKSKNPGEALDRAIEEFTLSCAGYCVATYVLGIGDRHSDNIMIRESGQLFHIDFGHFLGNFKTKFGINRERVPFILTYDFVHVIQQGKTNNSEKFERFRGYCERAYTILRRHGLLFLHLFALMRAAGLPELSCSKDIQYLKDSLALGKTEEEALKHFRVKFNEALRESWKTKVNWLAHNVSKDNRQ
Chain of PI3K p110δ/p85α (human) (P27986 whole entry partner): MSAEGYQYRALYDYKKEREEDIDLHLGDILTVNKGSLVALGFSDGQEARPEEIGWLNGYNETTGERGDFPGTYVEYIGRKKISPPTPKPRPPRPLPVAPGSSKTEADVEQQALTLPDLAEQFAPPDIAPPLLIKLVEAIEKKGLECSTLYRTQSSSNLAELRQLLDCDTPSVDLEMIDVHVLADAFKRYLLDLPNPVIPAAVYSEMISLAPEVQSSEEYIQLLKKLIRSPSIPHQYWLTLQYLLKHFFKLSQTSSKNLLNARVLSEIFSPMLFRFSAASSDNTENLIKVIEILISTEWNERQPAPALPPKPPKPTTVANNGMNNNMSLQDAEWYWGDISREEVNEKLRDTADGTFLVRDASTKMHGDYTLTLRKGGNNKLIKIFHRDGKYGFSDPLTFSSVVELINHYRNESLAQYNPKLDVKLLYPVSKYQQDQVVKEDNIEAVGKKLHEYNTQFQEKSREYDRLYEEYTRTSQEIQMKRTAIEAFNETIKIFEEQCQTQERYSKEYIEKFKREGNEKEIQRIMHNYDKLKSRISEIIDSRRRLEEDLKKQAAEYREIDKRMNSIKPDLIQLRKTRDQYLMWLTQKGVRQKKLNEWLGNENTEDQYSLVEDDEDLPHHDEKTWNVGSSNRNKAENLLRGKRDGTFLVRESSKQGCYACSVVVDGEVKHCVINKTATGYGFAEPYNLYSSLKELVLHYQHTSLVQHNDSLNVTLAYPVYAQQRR
Chain of PI3K (p120γ) (human) (P48736 whole entry, the tested form may be a part): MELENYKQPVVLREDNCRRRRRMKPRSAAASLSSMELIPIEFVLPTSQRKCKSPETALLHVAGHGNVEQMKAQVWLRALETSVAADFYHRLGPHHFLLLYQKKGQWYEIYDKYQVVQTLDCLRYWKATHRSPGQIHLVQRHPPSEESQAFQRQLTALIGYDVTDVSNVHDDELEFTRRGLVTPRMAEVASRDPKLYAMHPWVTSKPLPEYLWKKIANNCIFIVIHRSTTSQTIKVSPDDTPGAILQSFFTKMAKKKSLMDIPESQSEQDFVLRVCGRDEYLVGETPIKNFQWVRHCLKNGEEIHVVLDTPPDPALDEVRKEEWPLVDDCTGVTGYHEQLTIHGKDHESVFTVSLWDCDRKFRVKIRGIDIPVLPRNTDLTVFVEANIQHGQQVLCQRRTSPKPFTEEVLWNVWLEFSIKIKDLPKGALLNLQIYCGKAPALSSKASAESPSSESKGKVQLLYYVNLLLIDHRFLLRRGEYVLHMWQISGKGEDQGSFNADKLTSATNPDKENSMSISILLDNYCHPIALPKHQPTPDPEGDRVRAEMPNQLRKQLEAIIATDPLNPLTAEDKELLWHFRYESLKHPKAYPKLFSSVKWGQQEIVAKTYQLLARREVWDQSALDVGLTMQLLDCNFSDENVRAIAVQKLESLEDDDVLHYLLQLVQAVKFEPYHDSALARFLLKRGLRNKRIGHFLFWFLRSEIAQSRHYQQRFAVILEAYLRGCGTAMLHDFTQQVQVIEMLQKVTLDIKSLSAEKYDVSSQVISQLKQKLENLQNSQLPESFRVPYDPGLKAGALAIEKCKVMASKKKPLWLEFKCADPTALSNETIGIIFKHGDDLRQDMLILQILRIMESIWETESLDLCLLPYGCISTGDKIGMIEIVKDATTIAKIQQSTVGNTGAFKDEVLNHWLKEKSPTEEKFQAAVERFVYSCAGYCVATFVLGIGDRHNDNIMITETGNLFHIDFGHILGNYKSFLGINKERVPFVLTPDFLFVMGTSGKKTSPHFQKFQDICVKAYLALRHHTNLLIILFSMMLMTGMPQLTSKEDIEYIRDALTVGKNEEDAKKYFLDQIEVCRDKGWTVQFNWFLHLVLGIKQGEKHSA
Chain of PI3K p110α/p85α (human) (P42336 whole entry): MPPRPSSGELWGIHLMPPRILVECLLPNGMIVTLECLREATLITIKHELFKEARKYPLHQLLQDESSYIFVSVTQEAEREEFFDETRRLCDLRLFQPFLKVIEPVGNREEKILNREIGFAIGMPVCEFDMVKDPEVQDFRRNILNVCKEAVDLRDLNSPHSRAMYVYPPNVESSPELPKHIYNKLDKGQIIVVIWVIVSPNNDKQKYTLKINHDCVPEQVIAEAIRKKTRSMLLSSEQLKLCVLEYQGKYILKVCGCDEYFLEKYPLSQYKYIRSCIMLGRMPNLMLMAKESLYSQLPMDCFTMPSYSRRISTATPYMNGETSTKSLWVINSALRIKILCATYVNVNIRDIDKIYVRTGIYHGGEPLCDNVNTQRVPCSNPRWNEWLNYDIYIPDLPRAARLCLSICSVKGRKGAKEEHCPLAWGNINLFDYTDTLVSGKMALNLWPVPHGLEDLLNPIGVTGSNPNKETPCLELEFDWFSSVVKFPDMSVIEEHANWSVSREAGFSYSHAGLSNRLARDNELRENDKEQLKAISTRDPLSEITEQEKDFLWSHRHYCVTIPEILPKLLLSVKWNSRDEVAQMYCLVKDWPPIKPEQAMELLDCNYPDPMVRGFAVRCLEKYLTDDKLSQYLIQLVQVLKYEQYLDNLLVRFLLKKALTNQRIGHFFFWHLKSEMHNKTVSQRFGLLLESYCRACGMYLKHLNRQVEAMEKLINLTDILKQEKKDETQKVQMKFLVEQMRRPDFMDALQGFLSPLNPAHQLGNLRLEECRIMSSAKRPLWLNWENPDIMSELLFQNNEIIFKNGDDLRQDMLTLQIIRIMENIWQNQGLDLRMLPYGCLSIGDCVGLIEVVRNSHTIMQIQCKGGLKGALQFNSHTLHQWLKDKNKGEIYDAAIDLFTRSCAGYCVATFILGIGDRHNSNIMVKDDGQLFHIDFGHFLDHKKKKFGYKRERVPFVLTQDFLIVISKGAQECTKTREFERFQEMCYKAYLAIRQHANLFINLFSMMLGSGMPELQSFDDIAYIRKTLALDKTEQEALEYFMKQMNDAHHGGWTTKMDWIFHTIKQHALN
Chain of PI3K p110α/p85α (human) (P27986 whole entry partner): as the sequence (P27986 whole entry partner) above
Chain of PI3K p110β/p85α (human) (P42338 whole entry, the tested form may be a part): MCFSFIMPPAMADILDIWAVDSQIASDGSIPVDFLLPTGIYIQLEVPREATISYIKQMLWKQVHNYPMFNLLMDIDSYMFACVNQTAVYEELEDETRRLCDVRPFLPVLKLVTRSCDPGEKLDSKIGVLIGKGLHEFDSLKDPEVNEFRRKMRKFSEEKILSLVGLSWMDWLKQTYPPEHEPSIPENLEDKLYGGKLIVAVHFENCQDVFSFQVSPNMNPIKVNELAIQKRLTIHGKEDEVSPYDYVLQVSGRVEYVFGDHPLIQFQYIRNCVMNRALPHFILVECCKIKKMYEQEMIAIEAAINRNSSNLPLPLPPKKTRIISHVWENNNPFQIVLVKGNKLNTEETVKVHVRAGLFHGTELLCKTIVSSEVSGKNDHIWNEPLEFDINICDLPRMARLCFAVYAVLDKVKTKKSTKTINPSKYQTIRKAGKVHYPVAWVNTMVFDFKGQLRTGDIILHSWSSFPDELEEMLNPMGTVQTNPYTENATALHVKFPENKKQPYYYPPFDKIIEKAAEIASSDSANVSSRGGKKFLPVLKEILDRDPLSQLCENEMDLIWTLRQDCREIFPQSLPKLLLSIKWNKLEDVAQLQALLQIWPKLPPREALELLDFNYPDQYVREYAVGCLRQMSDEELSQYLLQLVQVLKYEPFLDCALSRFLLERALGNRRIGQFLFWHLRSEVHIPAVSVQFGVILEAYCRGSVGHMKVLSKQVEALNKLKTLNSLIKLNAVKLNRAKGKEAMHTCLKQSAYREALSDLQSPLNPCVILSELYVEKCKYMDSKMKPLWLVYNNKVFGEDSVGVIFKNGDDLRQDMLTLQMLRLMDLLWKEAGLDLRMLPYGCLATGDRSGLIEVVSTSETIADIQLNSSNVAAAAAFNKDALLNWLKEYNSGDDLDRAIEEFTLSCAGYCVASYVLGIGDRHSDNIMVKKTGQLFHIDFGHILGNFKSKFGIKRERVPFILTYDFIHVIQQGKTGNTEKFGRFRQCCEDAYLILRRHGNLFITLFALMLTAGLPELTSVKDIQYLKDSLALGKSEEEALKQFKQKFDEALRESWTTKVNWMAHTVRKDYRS
Chain of PI3K p110β/p85α (human) (P27986 whole entry partner, the tested form may be a part): as the sequence (P27986 whole entry partner) above

SMILES | IC50 [1] [µM] | IC50 ([1]; 10 μM ATP, substrate p53) [µM] | IC50 (PI3K (p120γ) (human)) [µM] | IC50 (PI3K p110β/p85α (human); read-out: IC50 (PI3Kbeta)) [µM] | IC50 (PI3K p110α/p85α (human)) [µM] | IC50 [2] [µM] | IC50 (PI3K p110δ/p85α (human)) [µM] | IC50 (mTOR (human)) [µM] | IC50 (PI3K p110β/p85α (human)) [µM]
CCn1cc(-c2cc3c(cc2OC)ncc2c3n(-c3c(C)cncc3F)c(=O)n2C)cn1 [Compound Example 38, 8-(1-Ethyl-1H-pyrazol-4-yl)-1-(3-fluoro-5-methylpyridin-4-yl)-7-methoxy-3-methyl-1,3-dihydroimidazo[4,5-c] quinolin-2-one] | < 0.001 | < 0.001 | > 30 | > 30 | > 30 | 0.2 to 1 | > 30 | > 30 | –
COc1cc2ncc3c(c2cc1-c1cnn(C)c1)n(-c1cn(C)cn1)c(=O)n3C [compound 59, 7-Methoxy-3-methyl-1-(1-methyl-1H-imidazol-4-yl)-8-(1-methyl-1H-pyrazol-4-yl)-1,3-dihydroimidazo[4,5-c] quinolin-2-one] | < 0.01 | < 0.01 | > 30 | > 30 | > 30 | 1 to 2 | > 30 | > 30 | –
COc1cc2ncc3c(c2cc1-c1cn[nH]c1)n(-c1ncc(F)cc1F)c(=O)n3C [Example 6] | < 0.001 | < 0.001 | > 30 | – | > 30 | < 0.2 | > 30 | > 30 | > 30
CCn1cc(-c2cc3c(cc2OC)ncc2c3n(-c3ncccc3F)c(=O)n2C)cn1 [Compound Example 24, 8-(1-Ethyl-1H-pyrazol-4-yl)-1-(3-fluoropyridin-2-yl)-7-methoxy-3-methyl-1,3-dihydroimidazo[4,5-c] quinolin-2-one] | < 0.001 | < 0.001 | > 30 | > 30 | > 30 | < 0.2 | > 30 | > 30 | –
COc1cc2ncc3c(c2cc1-c1cnn(C)c1)n(-c1c(F)cncc1OC)c(=O)n3C [Compound Example 15, 1-(3-Fluoro-5-methoxypyridin-4-yl)-7-methoxy-3-methyl-8-(1-methyl-1H-pyrazol-4-yl)-1,3-dihydroimidazo[4,5-c]-quinolin-2-one] | < 0.001 | < 0.001 | > 30 | > 30 | > 30 | < 0.2 | > 30 | > 30 | –
COc1cc2ncc3c(c2cc1-c1cnn(C)c1)n(-c1ncccc1F)c(=O)n3C [Compound Example 14, 1-(3-Fluoropyridin-2-yl)-7-methoxy-3-methyl-8-(1-methyl-1H-pyrazol-4-yl)-1,3-dihydroimidazo[4,5-c]-quinolin-2-one] | < 0.001 | < 0.001 | > 30 | > 30 | > 30 | < 0.2 | > 30 | > 30 | –
COc1cc2ncc3c(c2cc1-c1cn[nH]c1)n(-c1cnn(C)c1)c(=O)n3C [Compound Example 17, 7-Methoxy-3-methyl-1-(1-methyl-1H-pyrazol-4-yl)-8-(1H-pyrazol-4-yl)-1,3-dihydroimidazo[4,5-c] quinolin-2-one] | < 0.01 | < 0.001 | > 30 | > 30 | > 30 | < 0.2 | > 30 | > 10 | –
COc1cc2ncc3c(c2cc1-c1cnn(C)c1)n(-c1c[nH]nc1C)c(=O)n3C [Compound Example 43, 7-Methoxy-3-methyl-1-(3-methyl-1H-pyrazol-4-yl)-8-(1-methyl-1H-pyrazol-4-yl)-1,3-dihydroimidazo[4,5-c]-quinolin-2-one] | < 0.001 | < 0.001 | > 30 | > 30 | > 30 | 0.2 to 1 | > 30 | > 30 | –
CCn1cc(-c2cc3c(cc2OC)ncc2c3n(-c3cn(C)nc3C)c(=O)n2C)cn1 [Compound Example 21, 1-(1,3-Dimethyl-1H-pyrazol-4-yl)-8-(1-ethyl-1H-pyrazol-4-yl)-7-methoxy-3-methyl-1,3-dihydroimidazo[4,5-c] quinolin-2-one] | < 0.001 | < 0.001 | > 300 | > 30 | > 20 | < 0.2 | > 30 | > 5 | –
COc1cc2ncc3c(c2cc1-c1cnn(C)c1)n(-c1ccnc(C#N)c1)c(=O)n3C [Compound Example 45, 4-[7-Methoxy-3-methyl-8-(1-methyl-1H-pyrazol-4-yl)-2-oxo-2,3-dihydroimidazo-[4,5-c]quinolin-1-yl]pyridine-2-carbonitrile] | < 0.05 | < 0.05 | > 30 | > 30 | > 30 | 0.2 to 1 | > 30 | > 30 | –
COc1cc2ncc3c(c2cc1-c1cnn(C)c1)n(-c1ncc(F)cn1)c(=O)n3C [Compound Example 36, 1-(5-Fluoropyrimidin-2-yl)-7-methoxy-3-methyl-8-(1-methyl-1H-pyrazol-4-yl)-1,3-dihydroimidazo[4,5-c] quinolin-2-one] | < 0.001 | < 0.01 | > 30 | > 30 | > 30 | < 0.2 | > 30 | > 30 | –
CCn1cc(-c2cc3c(cc2OC)ncc2c3n(-c3ccncc3F)c(=O)n2C)cn1 [Compound Example 33, 8-(1-Ethyl-1H-pyrazol-4-yl)-1-(3-fluoropyridin-4-yl)-7-methoxy-3-methyl-1,3-dihydroimidazo[4,5-c] quinolin-2-one] | < 0.001 | < 0.001 | > 30 | > 30 | > 30 | < 0.2 | > 30 | > 30 | –
COc1cc2ncc3c(c2cc1-c1cn[nH]c1)n(-c1cnn(C2CCOCC2)c1)c(=O)n3C [Compound Example 37, 7-Methoxy-3-methyl-8-(1H-pyrazol-4-yl)-1-[1-(tetrahydropyran-4-yl)-1H-pyrazol-4-yl]-1,3-dihydro-imidazo[4,5-c] quinolin-2-one] | < 0.01 | < 0.01 | > 30 | > 30 | > 30 | < 0.2 | > 30 | > 10 | –
COc1cc2ncc3c(c2cc1-c1cnn(C)c1)n(-c1ccncc1F)c(=O)n3C [Compound Example 35, 1-(3-Fluoropyridin-4-yl)-7-methoxy-3-methyl-8-(1-methyl-1H-pyrazol-4-yl)-1,3-dihydroimidazo[4,5-c] quinolin-2-one] | < 0.01 | < 0.01 | > 30 | > 30 | > 30 | < 0.2 | > 30 | > 30 | –
COc1cc2ncc3c(c2cc1-c1cnn(C)c1)n(-c1cn[nH]c1)c(=O)n3C [Compound Example 53, 7-Methoxy-3-methyl-8-(1-methyl-1H-pyrazol-4-yl)-1-(1H-pyrazol-4-yl)-1,3-dihydroimidazo[4,5-c]-quinolin-2-one] | < 0.01 | < 0.01 | > 30 | > 30 | > 30 | 0.2 to 1 | > 30 | > 30 | –
COc1cc2ncc3c(c2cc1-c1cn[nH]c1)n(-c1csc(C)n1)c(=O)n3C [Compound Example 30, 7-Methoxy-3-methyl-1-(2-methylthiazol-4-yl)-8-(1H-pyrazol-4-yl)-1,3-dihydro-imidazo[4,5-c]quinolin-2-one] | < 0.01 | < 0.01 | > 30 | > 30 | > 30 | < 0.2 | > 30 | > 30 | –
CCc1cncc(F)c1-n1c(=O)n(C)c2cnc3cc(OC)c(-c4cnn(C)c4)cc3c21 [Compound Example 12, 1-(3-Ethyl-5-fluoropyridin-4-yl)-7-methoxy-3-methyl-8-(1-methyl-1H-pyrazol-4-yl)-1,3-dihydroimidazo[4,5-c]-quinolin-2-one] | < 0.001 | < 0.001 | > 30 | > 30 | > 30 | < 0.2 | > 30 | > 30 | –
